In article PMC2248166, “Quantitative peptide binding motifs for 19 human and mouse MHC class I molecules derived using positional scanning combinatorial peptide libraries” (Immunome Research, 2008):
Where a SMILES comes first, the peptide text is derived from it.

Key:
Experiment in all cases: biochemical
Format in all cases: binding
HLA A*3001 = HLA A*3001 (Homo sapiens, UniProt P04439, D140H/D185E/E176W/F33S/G80R/H175R/K168Q/R138E/R41S)
HLA B*1501 = HLA B*1501 (Homo sapiens, UniProt P01889, A329T/A93T/A95T/C349S/D201E/D98Y/E187L/E204Q/E69M/E70A/K202T/N87E/Q94N/R155S/R180W/S121R/S35A/S48A/V306I/V36M/Y140S/Y91S)
HLA B*1503 = HLA B*1503 (Homo sapiens, UniProt P01889, A329T/A93T/A95T/C349S/D201E/D98Y/E187L/E204Q/K202T/N87E/Q94N/R155S/R180L/S121R/S35A/V306I/V36M/Y140S/Y91S)
HLA A*3201 = HLA A*3201 (Homo sapiens, UniProt P04439, A270S/D101S/D185E/E176V/E277Q/F133L/G103R/G107R/G231S/H175R/I121M/I218V/I322F/K168Q/L105A/L300P/L318F/M331R/P208A/P217A/Q94H/R106L/R138Q/S129P/T104I/T323A/T345S/V100E/V321M/V358M)

Sequence of HLA A*3001 (P04439 25-365 limits assumed, stated change not applied): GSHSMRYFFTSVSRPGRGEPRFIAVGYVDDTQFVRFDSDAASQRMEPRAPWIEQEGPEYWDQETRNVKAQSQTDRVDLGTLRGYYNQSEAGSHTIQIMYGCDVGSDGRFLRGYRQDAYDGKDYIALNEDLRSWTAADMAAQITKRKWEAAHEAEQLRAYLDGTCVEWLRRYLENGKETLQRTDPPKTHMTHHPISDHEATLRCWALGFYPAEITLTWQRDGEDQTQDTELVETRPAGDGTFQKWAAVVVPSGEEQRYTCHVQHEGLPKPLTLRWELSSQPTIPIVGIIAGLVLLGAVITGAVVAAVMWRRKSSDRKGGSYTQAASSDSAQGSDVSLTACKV

SMILES	IC50 (HLA A*3001)	IC50 (HLA B*1501)	IC50 (HLA B*1503)	IC50 (HLA A*3201)
CC[C@H](C)[C@H](NC(=O)[C@H](Cc1ccc(O)cc1)NC(=O)[C@H](C)NC(=O)[C@H](C)NC(=O)[C@H](Cc1c[nH]cn1)NC(=O)[C@H](CO)NC(=O)[C@@H](N)CCCCN)C(=O)N[C@@H](CC(=O)O)C(=O)N[C@@H](Cc1ccc(O)cc1)C(=O)O [3102.0209] (H-KSHAAYIDY-OH)	12 nM	1.8 nM	1.7 nM	–
CC(C)C[C@H](NC(=O)[C@@H](NC(=O)[C@H](CO)NC(=O)[C@H](CCCCN)NC(=O)[C@@H](NC(=O)[C@@H](N)Cc1c[nH]cn1)C(C)C)[C@@H](C)O)C(=O)N[C@@H](CC(N)=O)C(=O)N[C@@H](CC(N)=O)C(=O)N[C@@H](C)C(=O)O [3102.0217] (H-HVKSTLNNA-OH)	1.2 nM	367 nM	–	–
CC[C@H](C)[C@H](NC(=O)[C@H](CO)NC(=O)[C@@H](N)CCCCN)C(=O)N[C@@H](CCC(=O)O)C(=O)N[C@@H](CCC(N)=O)C(=O)N[C@@H](Cc1c[nH]cn1)C(=O)N1CCC[C@H]1C(=O)N[C@H](C(=O)N[C@H](C(=O)O)C(C)C)C(C)C [3102.0246] (H-KSIEQHPVV-OH)	2.7 nM	71 nM	–	–
CC[C@H](C)[C@H](NC(=O)[C@H](Cc1ccccc1)NC(=O)[C@H](CC(C)C)NC(=O)[C@@H](NC(=O)[C@@H](N)CC(C)C)[C@@H](C)CC)C(=O)N[C@@H](CO)C(=O)N[C@H](C(=O)N1CCC[C@H]1C(=O)N[C@@H](Cc1ccccc1)C(=O)O)[C@@H](C)CC [3102.0290] (H-LILFISIPF-OH)	–	–	–	25 nM
CC[C@H](C)[C@H](NC(=O)[C@H](CCCCN)NC(=O)[C@H](Cc1ccccc1)NC(=O)[C@H](CCSC)NC(=O)[C@@H](N)[C@@H](C)O)C(=O)N[C@H](C(=O)N[C@@H](Cc1ccc(O)cc1)C(=O)N[C@@H](CO)C(=O)N[C@@H](CC(C)C)C(=O)O)C(C)C [3102.0291] (H-TMFKIVYSL-OH)	–	–	–	0.92 nM
CC(C)C[C@H](NC(=O)[C@@H](NC(=O)[C@H](Cc1ccc(O)cc1)NC(=O)[C@H](CCCNC(=N)N)NC(=O)[C@H](CC(C)C)NC(=O)[C@H](CCC(=O)O)NC(=O)[C@H](Cc1ccc(O)cc1)NC(=O)[C@@H](NC(=O)[C@@H](N)C(C)C)[C@@H](C)O)[C@@H](C)O)C(=O)O [3102.0294] (H-VTYELRYTL-OH)	–	–	–	12 nM
CC(C)C[C@H](NC(=O)CNC(=O)[C@H](C)NC(=O)[C@@H](NC(=O)[C@H](C)N)[C@@H](C)O)C(=O)N[C@@H](Cc1c[nH]cn1)C(=O)N[C@@H](CC(C)C)C(=O)NCC(=O)N[C@@H](Cc1ccccc1)C(=O)O [3102.0295] (H-ATAGLHLGF-OH)	–	–	–	1.7 nM
CC[C@H](C)[C@H](NC(=O)[C@H](Cc1ccccc1)NC(=O)[C@@H](NC(=O)[C@H](CCC(N)=O)NC(=O)[C@@H](N)CCCNC(=N)N)[C@@H](C)CC)C(=O)N[C@@H](Cc1c[nH]cn1)C(=O)N[C@@H](Cc1ccc(O)cc1)C(=O)N[C@@H](CO)C(=O)N[C@H](C(=O)O)C(C)C [3102.0296] (H-RQIFIHYSV-OH)	–	–	–	1 nM
CC[C@H](C)[C@H](NC(=O)[C@@H](NC(=O)[C@H](CC(C)C)NC(=O)[C@H](CO)NC(=O)[C@H](CCC(N)=O)NC(=O)[C@H](Cc1ccccc1)NC(=O)[C@H](CC(=O)O)NC(=O)[C@H](CCC(N)=O)NC(=O)[C@H](C)N)[C@@H](C)O)C(=O)O [3102.0299] (H-AQDFQSLTI-OH)	–	–	–	68 nM
CC[C@H](C)[C@H](N)C(=O)N[C@@H](CC(C)C)C(=O)N[C@@H](Cc1ccc(O)cc1)C(=O)N[C@@H](Cc1ccc(O)cc1)C(=O)N[C@@H](CC(C)C)C(=O)N[C@@H](CO)C(=O)N[C@@H](C)C(=O)N[C@@H](CCCCN)C(=O)N[C@H](C(=O)O)[C@@H](C)CC [3102.0300] (H-ILYYLSAKI-OH)	–	–	–	8.9 nM
CC(C)C[C@H](NC(=O)[C@H](Cc1ccc(O)cc1)NC(=O)[C@H](CC(N)=O)NC(=O)[C@H](Cc1ccccc1)NC(=O)[C@H](Cc1c[nH]c2ccccc12)NC(=O)[C@H](CC(C)C)NC(=O)[C@H](CC(C)C)NC(=O)[C@@H](N)CC(C)C)C(=O)N[C@@H](Cc1ccccc1)C(=O)O [3102.0301] (H-LLLWFNYLF-OH)	–	–	–	1.5 nM
CC[C@H](C)[C@H](NC(=O)[C@H](Cc1ccccc1)NC(=O)[C@@H](NC(=O)[C@@H](NC(=O)[C@@H](N)CO)[C@@H](C)CC)[C@@H](C)CC)C(=O)N[C@@H](CC(N)=O)C(=O)N[C@@H](Cc1ccc(O)cc1)C(=O)N[C@H](C(=O)N[C@@H](CCSC)C(=O)O)[C@@H](C)O [3102.0303] (H-SIIFINYTM-OH)	–	–	–	6.5 nM
CC[C@H](C)[C@H](NC(=O)[C@H](CO)NC(=O)[C@H](CO)NC(=O)[C@@H](NC(=O)[C@H](CO)NC(=O)[C@H](Cc1ccccc1)NC(=O)[C@@H](NC(=O)[C@@H](N)CO)[C@@H](C)O)[C@@H](C)CC)C(=O)N[C@@H](Cc1ccccc1)C(=O)O [3102.0305] (H-STFSISSIF-OH)	–	–	–	1.1 nM
CC[C@H](C)[C@H](NC(=O)[C@@H](NC(=O)[C@H](Cc1ccccc1)NC(=O)[C@H](Cc1ccccc1)NC(=O)[C@H](CC(C)C)NC(=O)[C@H](Cc1ccccc1)NC(=O)[C@H](CC(=O)O)NC(=O)[C@@H](NC(=O)[C@@H](N)CCCCN)[C@@H](C)CC)[C@@H](C)CC)C(=O)O [3102.0306] (H-KIDFLFFII-OH)	–	–	–	2 nM
C[C@@H](O)[C@H](NC(=O)[C@H](CCCNC(=N)N)NC(=O)[C@H](CC(N)=O)NC(=O)[C@H](Cc1ccccc1)NC(=O)[C@@H](NC(=O)[C@@H](N)CCCNC(=N)N)[C@@H](C)O)C(=O)N[C@@H](Cc1c[nH]cn1)C(=O)N[C@@H](Cc1ccc(O)cc1)C(=O)N[C@@H](Cc1c[nH]c2ccccc12)C(=O)O [3102.0309] (H-RTFNRTHYW-OH)	–	–	–	0.24 nM
CC[C@H](C)[C@H](NC(=O)[C@H](CCSC)NC(=O)[C@H](CC(C)C)NC(=O)[C@H](CCSC)NC(=O)[C@@H](N)CCSC)C(=O)NCC(=O)N[C@@H](CC(N)=O)C(=O)N[C@@H](Cc1ccc(O)cc1)C(=O)N[C@@H](Cc1ccccc1)C(=O)O [3102.1301] (H-MMLMIGNYF-OH)	–	33 nM	0.2 nM	–
CC(C)C[C@H](NC(=O)[C@H](C)N)C(=O)N[C@@H](CCCNC(=N)N)C(=O)N1CCC[C@H]1C(=O)N[C@@H](CO)C(=O)N[C@@H](CO)C(=O)N[C@@H](CCC(N)=O)C(=O)N[C@H](C(=O)N[C@@H](Cc1ccccc1)C(=O)O)C(C)C [3102.1320] (H-ALRPSSQVF-OH)	–	1.5 nM	0.095 nM	–
CC[C@H](C)[C@H](NC(=O)[C@H](Cc1c[nH]cn1)NC(=O)[C@H](CCC(N)=O)NC(=O)[C@H](CO)NC(=O)[C@H](CCC(=O)O)NC(=O)[C@@H](N)CC(C)C)C(=O)N[C@H](C(=O)N[C@@H](CO)C(=O)N[C@@H](Cc1ccccc1)C(=O)O)[C@@H](C)CC [3102.1322] (H-LESQHIISF-OH)	–	57 nM	28 nM	–
CC[C@H](C)[C@H](NC(=O)[C@H](CO)NC(=O)[C@@H](N)Cc1ccccc1)C(=O)N[C@@H](Cc1ccc(O)cc1)C(=O)N[C@@H](CO)C(=O)N[C@H](C(=O)N[C@@H](CO)C(=O)N[C@@H](CS)C(=O)N[C@@H](Cc1ccccc1)C(=O)O)C(C)C [3102.1330] (H-FSIYSVSCF-OH)	–	3.1 nM	7.6 nM	–
CC(C)C[C@H](NC(=O)[C@H](CO)NC(=O)[C@@H]1CCCN1C(=O)[C@H](CO)NC(=O)[C@H](Cc1ccccc1)NC(=O)[C@H](CO)NC(=O)[C@@H](N)C(C)C)C(=O)N[C@H](C(=O)N[C@@H](Cc1ccccc1)C(=O)O)[C@@H](C)O [3102.1333] (H-VSFSPSLTF-OH)	–	1.3 nM	1.2 nM	–
